≈ marks a conversion by molar mass, not a printed value. Where a SMILES comes first, the peptide text is derived from it. Bridges are numbered along the chain shown (N, C = ends). Roman numbers before positions name the chains, in order. [ ]: non-standard residue; d: D form. Thr(ol) = C[C@@H](O)[C@H](N)CO; Tle = CC(C)(C)[C@H](N)C(=O)O; NMeV = CN[C@H](C(=O)O)C(C)C; Hiv = CC(C)[C@H](O)C(=O)O; dDab = NCC[C@@H](N)C(=O)O; hSer = N[C@@H](CCO)C(=O)O; Orn = NCCC[C@H](N)C(=O)O; Dab = NCC[C@H](N)C(=O)O; Dap = NC[C@H](N)C(=O)O
What was measured:
Format in all cases: cell-based
[1] = test system: human red blood cells (hRBC); experiment: Hemolysis; conditions: red cells of human, 1 h, 200
Protocol: The peptides were tested for their hemolytic activity against human red blood cells (hRBC). Fresh hRBC were washed four times with phosphate buffered saline (PBS) and centrifuged for 10 min at 3000×g. Compounds (200 μg/mL) were incubated with 20% hRBC (v/v) for 1 h at 37° C. and shaking at 300 rpm. A value of 0% and 100% cell lysis, respectively, was determined by incubation of hRBC in the presence of PBS containing 10% water and 2% Triton X-100 in H2O, respectively. The samples were centrifuged, the supernatants were ˜7.5-fold diluted in PBS buffer and the optical densities (OD) were measured at 540 nm and blank corrected. The 100% lysis value (OD540Triton X-100) gave an OD540 of approximately 0.5-1.0.
Percent hemolysis was calculated as follows: (OD540peptide/OD540Triton X-100)×100%.

Escherichia coli 926415 = conditions: 926415
Protocol: (§1) The in vitro antimicrobial activities of the peptides were determined in 96-well plates (Greiner, polystyrene) by the standard CLSI broth microdilution method (Clinical and Laboratory Standards Institute 2014. Performance standards for antimicrobial susceptibility testing, 24th informational supplement. Approved standard CLSI M100-S24; Clinical and Laboratory Standards Institute, Wayne, Pa.). The following microorganisms were used to determine antibiotic activity of the peptides: Escherichia coli ATCC 25922, Klebsiella pneumoniae SSI #3010^a), Acinetobacter baumannii DSM 30008, Pseudomonas aeruginosa ATCC 27853 and the clinical isolates Escherichia coli 926415^b), Klebsiella pneumoniae 968733^b), Acinetobacter baumannii 872842^b), Enterobacter cloacae 848840^b) and Escherichia coli MCR-1 Af45^c). Before preparation of inocula, Escherichia coli MCR-1 Af45 was subcultured on Mueller-Hinton II (MH-cation adjusted) agar containing 2 μg/mL colistin. ^a) Obtained from Statens Serum Institut (SSI), Copenhagen, Denmark^b) Obtained from International Health Management Associates, Inc. (IHMA Europe Sàrl), Epalinges, Switzerland^c) Obtained from Prof. Patrice Nordmann, University of Fribourg, Fribourg, Switzerland
(§2) Inocula of the microorganisms were diluted into Mueller-Hinton II (MH-cation adjusted) broth and compared with a 0.5 McFarland standard to give appr. 10^6 colony forming units (CFU)/mL. Aliquots (90 μL) of inoculum were added to 10 μL of MH-II broth+P-80 (Polysorbate 80, 0.002% final concentration, v/v) containing the peptide in serial two-fold dilutions. Antimicrobial activities of the peptides were expressed as the minimal inhibitory concentration (MIC) in μg/mL at which no visible growth was observed after 18-20 hours of incubation at 35° C.

[2] = test system: Acinetobacter baumannii DSM 30008; conditions: DSM 30008
Protocol: as §1, §2

[3] = test system: Klebsiella pneumoniae SSI #3010; conditions: SSI #3010
Protocol: as §1, §2

[4] = test system: Klebsiella pneumoniae 968733; conditions: 968733
Protocol: as §1, §2

[5] = test system: Enterobacter cloacae 848840; conditions: 848840
Protocol: as §1, §2

[6] = test system: Acinetobacter baumannii 872842; conditions: 872842
Protocol: as §1, §2

[7] = test system: Pseudomonas aeruginosa ATCC 27853; conditions: ATCC 27853
Protocol: as §1, §2

[8] = test system: Escherichia coli ATCC 25922; conditions: ATCC 25922
Protocol: as §1, §2

Row | SMILES | Hemolysis at 200 μg/mL [1] | MIC (Escherichia coli 926415) | MIC [2] | MIC [3] | MIC [4] | MIC [5] | MIC [6] | MIC [7] | MIC [8]
1 | CN[C@H](C(=O)N[C@H](C(=O)N[C@@H](Cc1ccc(O)cc1)C(=O)N[C@H]1CSSC[C@@H](C(=O)N[C@H](C(=O)N[C@@H](CO)C(N)=O)C(C)C)NC(=O)[C@H](Cc2c[nH]c3ccccc23)NC(=O)[C@H](CCO)NC(=O)[C@@H](CCN)NC(=O)[C@H](CCC(=O)N[C@@H](CCN)C(=O)N[C@H](C(=O)N[C@@H](CCN)C(=O)N[C@H]2CCNC(=O)[C@H]([C@@H](C)O)NC(=O)[C@H](CCN)NC(=O)[C@H](CCN)NC(=O)[C@H](CC(C)C)NC(=O)[C@@H](CC(C)C)NC(=O)[C@H](CCN)NC2=O)[C@@H](C)O)NC1=O)[C@@H](C)O)C(C)C [Ex. 12] (I: H-[NMeV]TYCE[dDab][hSer]WCVS-NH2 / II: [Dab]T[Dab][Dab][Dab][dL]L[Dab][Dab]T; disulfide I:4-I:9; amide I:5-II:N; lactam II:4-II:C) | 2% | 1 mg/L (≈ 0.432 µM) | 0.125 mg/L (≈ 0.054 µM) | 0.25 mg/L (≈ 0.108 µM) | 4 mg/L (≈ 1.73 µM) | 0.5 mg/L (≈ 0.216 µM) | 1 mg/L (≈ 0.432 µM) | 0.125 mg/L (≈ 0.054 µM) | 0.0625 mg/L (≈ 0.027 µM)
2 | CC(=O)N[C@H](C(=O)N[C@H]1CCCNC(=O)[C@@H]([C@H](C)O)NC(=O)[C@H](C(C)(C)C)NC(=O)[C@H](CO)NC(=O)[C@H](Cc2c[nH]c3ccccc23)NC(=O)[C@H](CCO)NC(=O)[C@@H](CCN)NC(=O)[C@H](CCC(=O)N[C@@H](CCN)C(=O)N[C@H](C(=O)N[C@@H](CCN)C(=O)N[C@H]2CCNC(=O)[C@H]([C@@H](C)O)NC(=O)[C@H](CCN)NC(=O)[C@H](CCN)NC(=O)[C@H](CC(C)C)NC(=O)[C@@H](CC(C)C)NC(=O)[C@H](CCN)NC2=O)[C@@H](C)O)NC(=O)[C@H](CCN)NC(=O)[C@H](Cc2ccc(O)cc2)NC1=O)C(C)C [Ex. 15] (I: Ac-V[Orn]Y[Dab]E[dDab][hSer]WS[Tle][dT] / II: [Dab]T[Dab][Dab][Dab][dL]L[Dab][Dab]T; lactam I:2-I:C, II:4-II:C; amide I:5-II:N) | <1% | 0.25 mg/L (≈ 0.106 µM) | 0.125 mg/L (≈ 0.0532 µM) | 0.125 mg/L (≈ 0.0532 µM) | 0.25 mg/L (≈ 0.106 µM) | 0.125 mg/L (≈ 0.0532 µM) | 0.25 mg/L (≈ 0.106 µM) | 0.25 mg/L (≈ 0.106 µM) | 0.0625 mg/L (≈ 0.0266 µM)
3 | CC(=O)N[C@H](C(=O)N[C@H]1CCCNC(=O)[C@@H]([C@H](C)O)NC(=O)[C@H](C(C)(C)C)NC(=O)[C@H](CO)NC(=O)[C@H](Cc2c[nH]c3ccccc23)NC(=O)[C@H](CCO)NC(=O)[C@@H](CCN)NC(=O)[C@H](CCC(=O)N[C@@H](CCN)C(=O)N[C@H](C(=O)N[C@@H](CN)C(=O)N[C@H]2CCNC(=O)[C@H]([C@@H](C)O)NC(=O)[C@H](CCN)NC(=O)[C@H](CCN)NC(=O)[C@H](CC(C)C)NC(=O)[C@@H](CC(C)C)NC(=O)[C@H](CCN)NC2=O)[C@@H](C)O)NC(=O)[C@H](CCN)NC(=O)[C@H](Cc2ccc(O)cc2)NC1=O)C(C)C [Ex. 16] (I: Ac-V[Orn]Y[Dab]E[dDab][hSer]WS[Tle][dT] / II: [Dab]T[Dap][Dab][Dab][dL]L[Dab][Dab]T; lactam I:2-I:C, II:4-II:C; amide I:5-II:N) | <1% | 0.25 mg/L (≈ 0.107 µM) | 0.0625 mg/L (≈ 0.0268 µM) | 0.0625 mg/L (≈ 0.0268 µM) | 0.125 mg/L (≈ 0.0536 µM) | 0.25 mg/L (≈ 0.107 µM) | 0.25 mg/L (≈ 0.107 µM) | 0.25 mg/L (≈ 0.107 µM) | 0.0625 mg/L (≈ 0.0268 µM)
4 | CC(=O)N[C@H](C(=O)N[C@H]1CCCNC(=O)[C@@H]([C@H](C)O)NC(=O)[C@H](C(C)(C)C)NC(=O)[C@H](CO)NC(=O)[C@H](Cc2c[nH]c3ccccc23)NC(=O)[C@H](CCO)NC(=O)[C@@H](CCN)NC(=O)[C@H](CCC(=O)N[C@@H](CCN)C(=O)N[C@H](C(=O)N[C@@H](CN)C(=O)N[C@H]2CCNC(=O)[C@H]([C@@H](C)O)NC(=O)[C@H](CCN)NC(=O)[C@H](CCN)NC(=O)[C@H](CC(C)C)NC(=O)[C@@H](CC(C)C)NC(=O)[C@H](CCN)NC2=O)[C@@H](C)O)NC(=O)[C@H]([C@@H](C)O)NC(=O)[C@H](Cc2ccc(O)cc2)NC1=O)C(C)C [Ex. 17] (I: Ac-V[Orn]YTE[dDab][hSer]WS[Tle][dT] / II: [Dab]T[Dap][Dab][Dab][dL]L[Dab][Dab]T; lactam I:2-I:C, II:4-II:C; amide I:5-II:N) | <1% | 0.5 mg/L (≈ 0.214 µM) | 0.0625 mg/L (≈ 0.0268 µM) | 0.125 mg/L (≈ 0.0535 µM) | 0.5 mg/L (≈ 0.214 µM) | 0.25 mg/L (≈ 0.107 µM) | 0.125 mg/L (≈ 0.0535 µM) | 0.25 mg/L (≈ 0.107 µM) | 0.0625 mg/L (≈ 0.0268 µM)
5 | CC(C)C[C@@H]1NC(=O)[C@@H](CC(C)C)NC(=O)[C@H](CCN)NC(=O)[C@@H](NC(=O)[C@H](CN)NC(=O)[C@@H](NC(=O)[C@H](CCN)NC(=O)CC[C@H]2NC(=O)[C@@H](CCN)NC(=O)[C@H](CCCN)NC(=O)[C@H](CCN)NC(=O)[C@H](Cc3ccc(O)cc3)NC(=O)[C@@H](NC(=O)[C@@H](O)C(C)C)CSSC[C@@H](C(=O)N[C@H](C(N)=O)[C@@H](C)O)NC(=O)[C@H](C(C)(C)C)NC(=O)[C@H](CO)NC(=O)[C@H](Cc3c[nH]c4ccccc34)NC2=O)[C@@H](C)O)CCNC(=O)[C@H]([C@@H](C)O)NC(=O)[C@H](CCN)NC(=O)[C@H](CCN)NC1=O [Ex. 169] (I: H-[Hiv]CY[Dab][Orn][dDab][dE]WS[Tle]CT-NH2 / II: [Dab]T[Dap][Dab][Dab][dL]L[Dab][Dab]T; disulfide I:2-I:11; amide I:7-II:N; lactam II:4-II:C) | <1% | 0.5 mg/L (≈ 0.207 µM) | 0.25 mg/L (≈ 0.104 µM) | 0.5 mg/L (≈ 0.207 µM) | 4 mg/L (≈ 1.66 µM) |  | 1 mg/L (≈ 0.414 µM) | 0.25 mg/L (≈ 0.104 µM) | 0.25 mg/L (≈ 0.104 µM)
6 | CC(C)C[C@@H]1NC(=O)[C@@H](CC(C)C)NC(=O)[C@H](CCN)NC(=O)[C@@H](NC(=O)[C@H](CN)NC(=O)[C@@H](NC(=O)[C@H](CCN)NC(=O)CC[C@H]2NC(=O)CNC(=O)[C@H](CCCN)NC(=O)[C@H](CCN)NC(=O)[C@H](Cc3ccc(O)cc3)NC(=O)[C@@H](NC(=O)[C@@H](O)C(C)C)CSSC[C@@H](C(=O)N[C@H](C(N)=O)[C@@H](C)O)NC(=O)[C@H](C(C)(C)C)NC(=O)[C@H](CO)NC(=O)[C@H](Cc3c[nH]c4ccccc34)NC2=O)[C@@H](C)O)CCNC(=O)[C@H]([C@@H](C)O)NC(=O)[C@H](CCN)NC(=O)[C@H](CCN)NC1=O [Ex. 170] (I: H-[Hiv]CY[Dab][Orn]G[dE]WS[Tle]CT-NH2 / II: [Dab]T[Dap][Dab][Dab][dL]L[Dab][Dab]T; disulfide I:2-I:11; amide I:7-II:N; lactam II:4-II:C) | <1% | 0.5 mg/L (≈ 0.211 µM) | 0.25 mg/L (≈ 0.105 µM) | 0.5 mg/L (≈ 0.211 µM) | 2 mg/L (≈ 0.844 µM) |  | 2 mg/L (≈ 0.844 µM) | 0.5 mg/L (≈ 0.211 µM) | 0.125 mg/L (≈ 0.0527 µM)
7 | CC(C)C[C@@H]1NC(=O)[C@@H](CC(C)C)NC(=O)[C@H](CCN)NC(=O)[C@@H](NC(=O)[C@H](CN)NC(=O)[C@@H](NC(=O)[C@H](CCN)NC(=O)CC[C@@H]2NC(=O)[C@H](CCCN)NC(=O)[C@@H](NC(=O)[C@H](Cc3ccc(O)cc3)NC(=O)[C@@H](NC(=O)[C@@H](O)C(C)C)[C@@H](C)O)CSSC[C@@H](C(=O)N[C@H](C(=O)N[C@@H](C)C(=O)N[C@H](CO)[C@@H](C)O)C(C)(C)C)NC(=O)[C@H](Cc3c[nH]c4ccccc34)NC(=O)[C@H]([C@@H](C)O)NC2=O)[C@@H](C)O)CCNC(=O)[C@H]([C@@H](C)O)NC(=O)[C@H](CCN)NC(=O)[C@H](CCN)NC1=O [Ex. 209] (I: H-[Hiv]TYC[Orn]ETWC[Tle]A[Thr(ol)] / II: [Dab]T[Dap][Dab][Dab][dL]L[Dab][Dab]T; disulfide I:4-I:9; amide I:6-II:N; lactam II:4-II:C) | <1% | 1 mg/L (≈ 0.419 µM) | 0.25 mg/L (≈ 0.105 µM) | 0.25 mg/L (≈ 0.105 µM) | 4 mg/L (≈ 1.68 µM) |  | 2 mg/L (≈ 0.838 µM) | 0.5 mg/L (≈ 0.21 µM) | 0.125 mg/L (≈ 0.0524 µM)

From patent publication US11629171B2, “Beta-hairpin peptidomimetics” (POLYPHOR AG, priority 2017, dated 2023)
